The NIST ThermoML archive (doi:10.1016/j.jct.2017.03.006)
± gives the expanded uncertainty stated by the source.

Assay: xn = mol fraction of the nth substance listed
Conditions: 293.15 K, Liquid, Vibrating tube method

Cc1ccc(C)c(C)c1 [1,2,4-trimethylbenzene] + CCC(C)O
mass density [kg/m3]
Conditions | x2 = 0 | x2 = 0.1 | x2 = 0.1989 | x2 = 0.3011 | x2 = 0.4002 | x2 = 0.5001 | x2 = 0.5997 | x2 = 0.6999 | x2 = 0.7999 | x2 = 0.9
100 kPa | – | – | 863.6 ± 0.7 | 857.4 ± 0.7 | 851.4 ± 0.7 | 845 ± 0.7 | 838.2 ± 0.7 | 831.1 ± 0.7 | 823.6 ± 0.7 | 815.3 ± 0.7
1000 kPa | 875.7 ± 0.7 | 869.9 ± 0.7 | 864.2 ± 0.7 | 858 ± 0.7 | 852 ± 0.7 | 845.6 ± 0.7 | 838.9 ± 0.7 | 831.8 ± 0.7 | 824.3 ± 0.7 | 816 ± 0.7
2000 kPa | 876.3 ± 0.7 | 870.6 ± 0.7 | 864.9 ± 0.7 | 858.8 ± 0.7 | 852.8 ± 0.7 | 846.4 ± 0.7 | 839.7 ± 0.7 | 832.6 ± 0.7 | 825 ± 0.7 | 816.8 ± 0.7
5000 kPa | 878.2 ± 0.7 | 872.7 ± 0.7 | 867 ± 0.7 | 860.9 ± 0.7 | 854.9 ± 0.7 | 848.5 ± 0.7 | 841.9 ± 0.7 | 834.8 ± 0.7 | 827.3 ± 0.7 | 819.1 ± 0.7
10000 kPa | 881.4 ± 0.7 | 875.9 ± 0.7 | 870.3 ± 0.7 | 864.2 ± 0.7 | 858.3 ± 0.7 | 852 ± 0.7 | 845.4 ± 0.7 | 838.3 ± 0.7 | 830.9 ± 0.7 | 822.7 ± 0.7
15000 kPa | 884.4 ± 0.7 | 879 ± 0.7 | 873.4 ± 0.7 | 867.5 ± 0.7 | 861.6 ± 0.7 | 855.3 ± 0.7 | 848.7 ± 0.7 | 841.7 ± 0.7 | 834.3 ± 0.7 | 826.1 ± 0.7
20000 kPa | 887.3 ± 0.7 | 882.1 ± 0.7 | 876.5 ± 0.7 | 870.6 ± 0.7 | 864.7 ± 0.7 | 858.5 ± 0.7 | 851.9 ± 0.7 | 845 ± 0.7 | 837.6 ± 0.7 | 829.5 ± 0.7
30000 kPa | 892.9 ± 0.7 | 887.9 ± 0.7 | 882.4 ± 0.7 | 876.6 ± 0.7 | 870.8 ± 0.7 | 864.6 ± 0.7 | 858.1 ± 0.7 | 851.2 ± 0.7 | 843.9 ± 0.8 | 835.8 ± 0.8
40000 kPa | 898.2 ± 0.7 | 893.4 ± 0.7 | 888 ± 0.7 | 882.2 ± 0.7 | 876.5 ± 0.7 | 870.4 ± 0.8 | 863.9 ± 0.8 | 857 ± 0.8 | 849.7 ± 0.8 | 841.7 ± 0.8
50000 kPa | 903.2 ± 0.7 | 898.6 ± 0.7 | 893.2 ± 0.8 | 887.5 ± 0.8 | 881.8 ± 0.8 | 875.7 ± 0.8 | 869.3 ± 0.8 | 862.5 ± 0.8 | 855.2 ± 0.8 | 847.2 ± 0.8
60000 kPa | 908 ± 0.8 | 903.6 ± 0.8 | 898.3 ± 0.8 | – | – | – | – | – | – | –
